Laboratory results as given in publication PMC6030096, “Synergy of Physico-chemical and Biological Experiments for Developing a Cyclooxygenase-2 Inhibitor” (Scientific Reports, 2018).
Where two headings read alike, the source gives them in different places.

Key:
COX-1 = biological target: T1, COX-1 (Homo sapiens, UniProt P23219); assay: Human whole blood assay for COX-1 (A23187 stimulated TxB2); assay type: cell-based; details: final conc 1 µM, A23187 50 µM
T1 construct: endogenous in cells; host or cells: human whole blood (heparinized, venipuncture)
Description: (§1) The use of human blood for the whole blood assay was duly approved by the institutional ethical committee of the University for human subjects. Production of prostaglandin PGE2 during lipopolysaccharide (LPS) stimulated whole blood was used to quantify COX-2 inhibitory activity whereas calcium ionophore (A23187) stimulated thromboxane (TxB2) production was used to measure COX-1 inhibitory activity of the compounds.
Approval for the use of human blood was taken from the institutional ethical committee of Guru Nanak Dev University Amritsar and informed consent was obtained from the subject[32],[33]. All experiments were performed in accordance with the relevant guidelines and regulations. By venipuncture, the blood sample was collected in heparinized tubes. […] Each sample in duplicate was assayed for TxB2 (the breakdown product of TxA2) using TXB2 Express ELISA kit (Cayman Chemicals, Ann Arbor, MI) by the reported protocol.

[1] = biological target: T2, 5-LOX (Soybean lipoxygenase) (Glycine max, UniProt P08170); assay: Lipoxygenase inhibitory activity assay; assay type: biochemical
T2 construct: purchased Cayman Chemical Co. 760700
T2 sequence (P08170 1-839): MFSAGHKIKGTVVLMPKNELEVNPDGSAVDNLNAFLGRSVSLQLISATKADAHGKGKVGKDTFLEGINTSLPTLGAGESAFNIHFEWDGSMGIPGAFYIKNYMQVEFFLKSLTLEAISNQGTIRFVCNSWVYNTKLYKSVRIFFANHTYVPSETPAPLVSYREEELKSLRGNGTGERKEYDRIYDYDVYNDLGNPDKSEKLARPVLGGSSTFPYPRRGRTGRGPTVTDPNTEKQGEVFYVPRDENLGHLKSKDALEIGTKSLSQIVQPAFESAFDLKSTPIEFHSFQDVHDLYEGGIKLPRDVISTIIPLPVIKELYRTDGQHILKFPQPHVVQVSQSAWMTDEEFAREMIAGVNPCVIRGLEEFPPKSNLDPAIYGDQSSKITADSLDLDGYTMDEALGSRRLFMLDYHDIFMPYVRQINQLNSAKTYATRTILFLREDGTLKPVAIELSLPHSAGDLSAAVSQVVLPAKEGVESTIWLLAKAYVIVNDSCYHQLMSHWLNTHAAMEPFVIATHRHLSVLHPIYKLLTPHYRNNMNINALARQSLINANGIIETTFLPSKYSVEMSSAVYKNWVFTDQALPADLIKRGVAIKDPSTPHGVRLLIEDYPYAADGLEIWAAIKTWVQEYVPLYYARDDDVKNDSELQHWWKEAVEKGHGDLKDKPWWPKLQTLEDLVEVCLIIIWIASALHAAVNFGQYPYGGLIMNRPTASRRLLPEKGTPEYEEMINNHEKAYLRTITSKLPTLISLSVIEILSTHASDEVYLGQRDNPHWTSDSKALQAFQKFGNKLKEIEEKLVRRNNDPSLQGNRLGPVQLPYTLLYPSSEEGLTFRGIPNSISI
Method: 10 µL of the compound of each concentration was mixed with 90 µL 5-LOX (Soybean lipoxygenase in assay buffer) in the specified wells of the 96-well plate. Two wells containing assay buffer and AA acted as blanks whereas four wells, each carrying enzyme and AA, were positive controls. 10 µL AA was added to each test well and the plate was shaken for 5 min. Chromogen (100 µL) was added to each well and the plate was again shaken for 5 min. The absorbance of each well at 490 nm was recorded on microplate scanning spectrophotometer. As per the protocol given with the assay kit, the 5-LOX inhibitory activity for each compound at each concentration was determined using the mean of the two values (duplicate experiments) with deviation <5%.

COX-2 = biological target: T3, COX-2 (Homo sapiens, UniProt P35354); assay: Human whole blood assay for COX-2 (LPS stimulated PGE2); assay type: cell-based; set-up: endogenous in cells; host or cells: human whole blood, aspirin-pretreated, LPS-stimulated; details: final conc 1 µM, LPS 10 µg mL^−1
T3 sequence (P35354 18-604): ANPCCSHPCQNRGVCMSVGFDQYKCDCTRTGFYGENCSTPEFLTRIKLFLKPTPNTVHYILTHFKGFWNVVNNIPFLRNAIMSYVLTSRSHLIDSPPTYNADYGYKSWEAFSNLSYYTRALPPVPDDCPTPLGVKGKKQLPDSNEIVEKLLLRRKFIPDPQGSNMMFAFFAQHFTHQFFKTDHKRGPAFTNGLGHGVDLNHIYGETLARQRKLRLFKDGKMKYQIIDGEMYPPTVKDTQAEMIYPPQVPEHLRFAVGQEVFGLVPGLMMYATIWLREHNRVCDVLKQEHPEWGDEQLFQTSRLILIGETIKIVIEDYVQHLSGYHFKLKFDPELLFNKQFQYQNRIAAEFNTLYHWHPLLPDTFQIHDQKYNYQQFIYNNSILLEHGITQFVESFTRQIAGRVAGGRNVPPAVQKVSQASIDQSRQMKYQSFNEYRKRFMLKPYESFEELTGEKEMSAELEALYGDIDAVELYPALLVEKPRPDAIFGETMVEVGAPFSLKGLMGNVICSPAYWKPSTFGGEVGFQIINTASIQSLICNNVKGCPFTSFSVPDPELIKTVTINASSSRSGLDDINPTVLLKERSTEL
Method: as §1
COX-2 assay was performed by inactivating COX-1 with 50 µL aspirin (10 µg/mL) per 400 µL of blood sample.

[2] = soybean lipoxygenase, duplicate, read-out: IC50 5-LOX

T1 sequence (P23219 24-599): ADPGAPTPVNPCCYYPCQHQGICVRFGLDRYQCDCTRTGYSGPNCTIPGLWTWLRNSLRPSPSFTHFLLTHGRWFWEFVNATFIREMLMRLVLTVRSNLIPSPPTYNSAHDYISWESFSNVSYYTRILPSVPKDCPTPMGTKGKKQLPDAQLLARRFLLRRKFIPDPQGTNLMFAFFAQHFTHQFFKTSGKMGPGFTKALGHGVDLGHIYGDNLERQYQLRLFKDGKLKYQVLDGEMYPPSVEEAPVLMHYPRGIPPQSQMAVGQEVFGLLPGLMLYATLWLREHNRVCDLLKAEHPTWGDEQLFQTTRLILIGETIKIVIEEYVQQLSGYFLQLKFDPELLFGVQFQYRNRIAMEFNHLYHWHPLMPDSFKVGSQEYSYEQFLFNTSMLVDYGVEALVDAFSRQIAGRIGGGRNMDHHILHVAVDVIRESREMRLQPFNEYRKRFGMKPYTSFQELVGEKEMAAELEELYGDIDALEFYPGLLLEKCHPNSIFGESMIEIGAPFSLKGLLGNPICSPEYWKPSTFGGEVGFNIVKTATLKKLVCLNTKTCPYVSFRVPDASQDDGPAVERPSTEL

`O=C1Nc2ccccc2C1=Cc1cn(C[C@H](O)Cn2c3ccccc3c(=O)c3ccccc32)c2ccccc12` [(S)-3c] was tested, and the “Production of TXB2, +Ca^2+ Ionophore” value (COX-1) was 1.80 ± 0.5 ng/mL, the IC50 [1, 2] was 500 ± 28 nM and the “Production of PGE2, +LPS” value (COX-2) was 0.97 ± 0.09 ng/mL.

`O=C1NC(=O)C(=Cc2cn(CCCn3c4ccccc4c(=O)c4ccccc43)c3ccccc23)C(=O)N1` [Compound 4a] was tested, and the “Production of TXB2, +Ca^2+ Ionophore” value (COX-1) was 1.84 ± 0.11 ng/mL, the IC50 [1] was 200 ± 10 nM and the “Production of PGE2, +LPS” value (COX-2) was 1.00 ± 0.13 ng/mL.

With `O=C1Nc2ccccc2C1=Cc1cn(CCCn2c3ccccc3c(=O)c3ccccc32)c2ccccc12` [Compound 4c] the “Production of TXB2, +Ca^2+ Ionophore” value (COX-1) was 1.70 ± 0.3 ng/mL, the IC50 [1, 2] was 100 ± 80 nM and the “Production of PGE2, +LPS” value (COX-2) was 1.01 ± 0.14 ng/mL.
